Data from the supplement of paper PMC10307832.

Assays:
Assay in all cases: relative viability (nuclei count vs DMSO), 5 days (fraction); higher = more cells survive
Vorinostat + Decitabine = compound: O=C(CCCCCCC(=O)Nc1ccccc1)NO [Vorinostat] + Nc1ncn([C@H]2C[C@H](O)[C@@H](CO)O2)c(=O)n1 [Decitabine] (partner 2 µM)
Procedure, shortened: (§1)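 Lung cancer cell lines, seeded in 1536-well plates, were treated the following day by pin tool with a single drug or with five library-drug doses (not always all listed) in √10 steps on top of a fixed anchor-drug dose. Cells were fixed and nuclei stained in one step after 5 days, and nuclei were counted. Relative viability is the nuclei count for treated wells divided by that for vehicle wells, reported as medians of duplicate plates.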

Vorinostat + OSI-027 = compound: O=C(CCCCCCC(=O)Nc1ccccc1)NO [Vorinostat] + COc1cccc2cc(-c3nc([C@H]4CC[C@H](C(=O)O)CC4)n4ncnc(N)c34)[nH]c12 [OSI-027] (partner 0.5 µM)
Procedure, shortened: as §1

Vorinostat + Luminespib = compound: O=C(CCCCCCC(=O)Nc1ccccc1)NO [Vorinostat] + CCNC(=O)c1noc(-c2cc(C(C)C)c(O)cc2O)c1-c1ccc(CN2CCOCC2)cc1 [Luminespib] (partner 0.01 µM)
Procedure, shortened: as §1

Vorinostat + Lapatinib = compound: O=C(CCCCCCC(=O)Nc1ccccc1)NO [Vorinostat] + CS(=O)(=O)CCNCc1ccc(-c2ccc3ncnc(Nc4ccc(OCc5cccc(F)c5)c(Cl)c4)c3c2)o1 [Lapatinib] (partner 2 µM)
Procedure, shortened: as §1

Vorinostat + Alpelisib = compound: O=C(CCCCCCC(=O)Nc1ccccc1)NO [Vorinostat] + Cc1nc(NC(=O)N2CCC[C@H]2C(N)=O)sc1-c1ccnc(C(C)(C)C(F)(F)F)c1 [Alpelisib] (partner 2 µM)
Procedure, shortened: as §1

Cell Line | relative viability (Vorinostat + Decitabine; first compound 0.253 µM) | relative viability (Vorinostat + Decitabine; first compound 0.8 µM) | relative viability (Vorinostat + Decitabine; first compound 2.53 µM) | relative viability (Vorinostat + Decitabine; first compound 8 µM) | relative viability (Vorinostat + OSI-027; first compound 0.253 µM) | relative viability (Vorinostat + OSI-027; first compound 0.8 µM) | relative viability (Vorinostat + OSI-027; first compound 2.53 µM) | relative viability (Vorinostat + OSI-027; first compound 8 µM) | relative viability (Vorinostat + Luminespib; first compound 0.253 µM) | relative viability (Vorinostat + Luminespib; first compound 0.8 µM) | relative viability (Vorinostat + Luminespib; first compound 2.53 µM) | relative viability (Vorinostat + Luminespib; first compound 8 µM) | relative viability (Vorinostat + Lapatinib; first compound 0.253 µM) | relative viability (Vorinostat + Lapatinib; first compound 0.8 µM) | relative viability (Vorinostat + Lapatinib; first compound 2.53 µM) | relative viability (Vorinostat + Lapatinib; first compound 8 µM) | relative viability (Vorinostat + Alpelisib; first compound 0.253 µM) | relative viability (Vorinostat + Alpelisib; first compound 0.8 µM) | relative viability (Vorinostat + Alpelisib; first compound 2.53 µM) | relative viability (Vorinostat + Alpelisib; first compound 8 µM)
NCI-H1915 | 0.278 | 0.254 | 0.174 | 0.106 | 0.632 | 0.5 | 0.205 | 0.152 | 0.792 | 0.761 | 0.18 | 0.0892 | 1.03 | 0.962 | 0.673 | 0.0743 | 1.16 | 1 | 0.4 | 0.0675
NCI-H1944 | 0.397 | 0.364 | 0.259 | 0.141 | 0.413 | 0.287 | 0.226 | 0.165 | 0.716 | 0.573 | 0.304 | 0.147 | 0.77 | 0.572 | 0.43 | 0.236 | 0.849 | 0.566 | 0.409 | 0.151
NCI-H1975 | 0.435 | 0.441 | 0.165 | 0.113 | 0.783 | 0.609 | 0.231 | 0.121 | 0.286 | 0.202 | 0.147 | 0.16 | 1.16 | 0.787 | 0.303 | 0.117 | 0.696 | 0.528 | 0.189 | 0.133
NCI-H1993 | 0.704 | 0.65 | 0.465 | 0.16 | 0.53 | 0.63 | 0.568 | 0.525 | 0.874 | 0.831 | 0.656 | 0.4 | 0.959 | 1 | 0.579 | 0.399 | 0.737 | 0.691 | 0.562 | 0.522
NCI-H2009 | 0.416 | 0.354 | 0.273 | 0.0862 | 0.793 | 0.795 | 0.254 | 0.0901 | 1.04 | 0.935 | 0.752 | 0.144 | 1.06 | 0.503 | 0.329 | 0.133 | 1.24 | 1 | 0.633 | 0.187
NCI-H2023 | 0.242 | 0.177 | 0.11 | 0.0687 | 0.473 | 0.359 | 0.134 | 0.0617 | 1.04 | 0.534 | 0.188 | 0.0701 | 1.01 | 0.597 | 0.186 | 0.0723 | 0.623 | 0.509 | 0.292 | 0.0757
NCI-H2085 | 0.569 | 0.554 | 0.379 | 0.281 | 0.722 | 0.463 | 0.415 | 0.205 | 0.447 | 0.411 | 0.317 | 0.19 | 0.676 | 0.608 | 0.494 | 0.278 | 0.982 | 0.947 | 0.514 | 0.255
NCI-H2087 | 0.271 | 0.207 | 0.105 | 0.051 | 0.746 | 0.417 | 0.106 | 0.063 | 0.226 | 0.148 | 0.157 | 0.127 | 1.23 | 0.962 | 0.352 | 0.178 | 1.03 | 1.06 | 0.393 | 0.134
NCI-H2126 | 0.58 | 0.533 | 0.332 | 0.19 | 0.761 | 0.572 | 0.506 | 0.209 | 0.832 | 0.977 | 0.403 | 0.175 | 0.75 | 0.733 | 0.562 | 0.22 | 0.733 | 0.653 | 0.365 | 0.199
NCI-H2170 | 0.415 | 0.407 | 0.321 | 0.129 | 0.78 | 0.759 | 0.569 | 0.144 | 0.894 | 0.692 | 0.577 | 0.171 | 0.283 | 0.273 | 0.238 | 0.198 | 0.823 | 0.69 | 0.235 | 0.141
NCI-H2347 | 0.644 | 0.62 | 0.508 | 0.24 | 0.363 | 0.382 | 0.149 | 0.164 | 0.608 | 0.333 | 0.221 | 0.192 | 0.988 | 1.04 | 0.766 | 0.341 | 1.11 | 1.08 | 0.526 | 0.221
NCI-H2405 | 0.794 | 0.741 | 0.478 | 0.121 | 0.695 | 0.778 | 0.463 | 0.103 | 0.995 | 1.03 | 0.596 | 0.164 | 1.36 | 1.18 | 0.306 | 0.0576 | 1.01 | 0.835 | 0.16 | 0.0486
NCI-H3122 | 0.45 | 0.582 | 0.269 | 0.117 | 1.26 | 1.1 | 0.135 | 0.129 | 0.0783 | 0.0802 | 0.0456 | 0.0728 | 1.03 | 0.981 | 0.939 | 0.167 | 0.768 | 0.811 | 0.393 | 0.208
PC-3 [JPC-3] | 0.807 | 0.71 | 0.429 | 0.381 | 0.68 | 0.727 | 0.378 | 0.175 | 0.746 | 0.801 | 0.282 | 0.261 | 0.456 | 0.441 | 0.326 | 0.252 | 1.01 | 0.979 | 0.572 | 0.259
PC-14 | 0.227 | 0.19 | 0.0705 | 0.06 | 1.13 | 0.832 | 0.0624 | 0.0451 | 0.128 | 0.143 | 0.113 | 0.133 | 0.36 | 0.251 | 0.135 | 0.0961 | 1 | 0.903 | 0.263 | 0.0674
RERF-LC-KJ | 0.79 | 0.614 | 0.184 | 0.254 | 0.56 | 0.52 | 0.238 | 0.256 | 1.22 | 0.883 | 0.308 | 0.278 | 0.938 | 0.781 | 0.733 | 0.227 | 0.862 | 0.898 | 0.457 | 0.234
